Paper PMC9596378, “Discovery and molecular basis of subtype-selective cyclophilin inhibitors” (Nature Chemical Biology, 2022)

target: CypD (Homo sapiens, UniProt P30405); test: Chymotrypsin coupled prolyl-isomerase assay; conditions: not given
Protocol: Five microliters of compound pre-dissolved in 5% DMSO/assay buffer was then added to appropriate wells and incubated at 2–3 °C for 5 min. Five microliters of 0.5 mM α-chymotrypsin from bovine pancreas (Type II, lyophilized powder, Millipore-Sigma) in 20% 1 mM HCl/Assay Buffer was then added to each well and incubated at 2–3 °C for 5 min. The plate was then quickly transferred to a FLIPR Tetra High-Throughput Cellular Screening System (Molecular Devices). Using the internal liquid handling system of the FLIPR, 1 µL 0.5 mM Suc-AAPF-AMC (Chymotrypsin Substrate II, Millipore-Sigma) dissolved in 0.55 M LiCl/2,2,2-trifluoroethanol was added to each well, which was then mixed for 5 s, followed by immediate fluorescence measurements every 1 s for 330 s using a 360–380 nm excitation LED module and a 400–460 nm emission filter. […] Raw fluorescence data was analyzed by non-linear regression analysis with Prism v.9 by fitting one-phase association curves to each well. […] Rate constants calculated for each well (s^−1) were then normalized to substrate only (no prolyl-isomerase) and enzyme + substrate only controls.

CypD, sequence (P30405 45-207): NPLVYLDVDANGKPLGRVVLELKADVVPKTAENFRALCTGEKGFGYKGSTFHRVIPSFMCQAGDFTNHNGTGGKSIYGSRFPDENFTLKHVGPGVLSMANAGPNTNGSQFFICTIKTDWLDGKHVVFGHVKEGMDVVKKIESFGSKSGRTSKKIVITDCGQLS

Row | SMILES | IC50 | CypD prolyl-isomerase inhibition (in words)
1 | NCCOCCNC(=O)C1CCNC(=O)C=CC(=O)N2CCCC(C2)C(=O)NC(Cc2ccco2)C(=O)NCc2ccccc2C(=O)N1 (centres unmarked) [Compound A1] | > 100 µM | –
2 | NCCOCCNC(=O)C1CCNC(=O)C=CC(=O)N2CCCC(C2)C(=O)NC(Cc2ccco2)C(=O)Nc2ccccc2CC(=O)N1 (centres unmarked) [Compound A2] | > 100 µM | –
3 | NCCOCCNC(=O)C1CCNC(=O)C=CC(=O)N2CCCC(C2)C(=O)NC(Cc2ccco2)C(=O)NC2C=CC(C2)C(=O)N1 (centres unmarked) [Compound A4] | > 100 µM | –
4 | NCCOCCNC(=O)C1CCNC(=O)C=CC(=O)N2CCCC(C2)C(=O)NC(Cc2ccco2)C(=O)Nc2ccccc2C(=O)N1 (centres unmarked) [Compound A6] | > 100 µM | –
5 | NCCOCCNC(=O)C1CCNC(=O)C=CC(=O)N2CCCC(C2)C(=O)NC(CC2CCCCC2)C(=O)NCc2ccccc2CC(=O)N1 (centres unmarked) [Compound A12] | > 100 µM | –
6 | NCCOCCNC(=O)C1CCNC(=O)C=CC(=O)N2CCCCC2C(=O)NC(Cc2ccco2)C(=O)NCc2ccccc2CC(=O)N1 (centres unmarked) [Compound A23] | > 100 µM | –
7 | NCCOCCNC(=O)C1CCNC(=O)C=CC(=O)NC2CCCC(C2)C(=O)NC(Cc2ccco2)C(=O)NCc2ccccc2CC(=O)N1 (centres unmarked) [Compound A28] | 10 ± 2 µM | –
8 | NCCOCCNC(=O)C1CCNC(=O)C=CC(=O)NC2CCCC(C2)C(=O)NC(Cc2ccco2)C(=O)NCc2ccccc2CC(=O)N1 (centres unmarked) [Compound A29] | 6.2 ± 0.9 µM | –
9 | NCCOCCNC(=O)C1CCNC(=O)CCC(=O)N2CCCC(C2)C(=O)NC(Cc2ccco2)C(=O)NCc2ccccc2CC(=O)N1 (centres unmarked) [Compound A30] | > 100 µM | –
10 | CC(C)(C)CC1NC(=O)C(CC2CCCCC2)NC(=O)C2CCCN2C(=O)C=CC(=O)NCc2cccc(c2)CC(C(=O)NCCOCCN)NC1=O (centres unmarked) [HJJJt/c] | – | no prolyl-isomerase inhibition
11 | CC(C)(C)CC1NC(=O)C(Cc2ccco2)NC(=O)C2CCCN2C(=O)C=CC(=O)NCc2cccc(c2)CC(C(=O)NCCOCCN)NC1=O (centres unmarked) [HOJJt/c] | – | no prolyl-isomerase inhibition
12 | NC(=O)C1CCNC(=O)C=CC(=O)N2CCCC(CC(=O)NC(Cc3ccco3)C(=O)NCc3ccccc3CC(=O)N1)C2 (centres unmarked) [JOBBc-A] | > 100 µM | –
13 | NCCOCCNC(=O)C1CCNC(=O)C=CC(=O)N2CCCC2CC(=O)NC(Cc2ccco2)C(=O)NCc2ccccc2CC(=O)N1 (centres unmarked) [JOCBt] | > 100 µM | –
14 | NC(=O)C1CCNC(=O)C=CC(=O)NC2CCC(CC2)C(=O)NC(Cc2ccco2)C(=O)NCc2ccccc2CC(=O)N1 (centres unmarked) [JOGBt-A] | > 100 µM | –
15 | NC(=O)C1CCNC(=O)C=CC(=O)N2CCCC(C2)C(=O)NC(Cc2ccco2)C(=O)NCc2ccccc2CC(=O)N1 (centres unmarked) [JOMBt-A] | 18 ± 3 µM | –
16 | NCCCOCCOCCOCCCNC(=O)C1CCNC(=O)C=CC(=O)N2CCCC(C2)C(=O)NC(Cc2ccco2)C(=O)NCc2ccccc2CC(=O)N1 (centres unmarked) [JOMBt-D] | 5.2 ± 0.3 µM | –

Continued, in another order:

Row | IC50 | SMILES | CypD prolyl-isomerase inhibition (in words)
17 | > 100 µM | NCCOCCNC(=O)C1CCNC(=O)C=CC(=O)N2CCCC(C2)C(=O)NC(Cc2ccco2)C(=O)NCc2ccccc2CC(=O)N1 (centres unmarked) [Compound A7] | –
18 | > 100 µM | CC1NC(=O)C2CCCN(C2)C(=O)C=CC(=O)NCCC(C(=O)NCCOCCN)NC(=O)Cc2ccccc2CNC1=O (centres unmarked) [Compound A8] | –
19 | 17 ± 6 µM | NCCOCCNC(=O)C1CCNC(=O)C=CC(=O)N2CCCC(C2)C(=O)NC(Cc2ccccc2)C(=O)NCc2ccccc2CC(=O)N1 (centres unmarked) [Compound A9] | –
20 | > 100 µM | CC(C)CC1NC(=O)C2CCCN(C2)C(=O)C=CC(=O)NCCC(C(=O)NCCOCCN)NC(=O)Cc2ccccc2CNC1=O (centres unmarked) [Compound A10] | –
21 | 17 ± 4 µM | NCCOCCNC(=O)C1CCNC(=O)C=CC(=O)N2CCCC(C2)C(=O)NC(CC=Cc2ccccc2)C(=O)NCc2ccccc2CC(=O)N1 (centres unmarked) [Compound A11] | –
22 | 18 ± 3 µM | NCCOCCNC(=O)C1CCNC(=O)C=CC(=O)N2CCCC(C2)C(=O)NC(Cc2ccc(-c3ccccc3)cc2)C(=O)NCc2ccccc2CC(=O)N1 (centres unmarked) [Compound A15] | –
23 | > 100 µM | NCCOCCNC(=O)C1CCNC(=O)C=CC(=O)N2CCCC(C2)C(=O)NC(CCc2ccccc2)C(=O)NCc2ccccc2CC(=O)N1 (centres unmarked) [Compound A16] | –
24 | 14 ± 3 µM | NCCOCCNC(=O)C1CCNC(=O)C=CC(=O)N2CCCC(C2)C(=O)NC(Cc2cccs2)C(=O)NCc2ccccc2CC(=O)N1 (centres unmarked) [Compound A17] | –
25 | 22 ± 3 µM | Cc1cccc(CC2NC(=O)C3CCCN(C3)C(=O)C=CC(=O)NCCC(C(=O)NCCOCCN)NC(=O)Cc3ccccc3CNC2=O)c1 (centres unmarked) [Compound A19] | –
26 | 10 ± 2 µM | CC(C)(C)c1ccc(CC2NC(=O)C3CCCN(C3)C(=O)C=CC(=O)NCCC(C(=O)NCCOCCN)NC(=O)Cc3ccccc3CNC2=O)cc1 (centres unmarked) [Compound A20] | –
27 | > 100 µM | NCCOCCNC(=O)C1CCNC(=O)C=CC(=O)N2CCCC(C2)C(=O)NC(Cc2ccco2)C(=O)NCc2ccccc2CC(=O)N1 (centres unmarked) [Compound A21] | –
28 | > 100 µM | NCCOCCNC(=O)C1CCNC(=O)C=CC(=O)N2CCC(C2)C(=O)NC(Cc2ccco2)C(=O)NCc2ccccc2CC(=O)N1 (centres unmarked) [Compound A24] | –
29 | 49 ± 6 µM | NCCOCCNC(=O)C1CCNC(=O)C=CC(=O)N2CCCC(CC(=O)NC(Cc3ccco3)C(=O)NCc3ccccc3CC(=O)N1)C2 (centres unmarked) [JOBBt] | –
30 | > 100 µM | NCCOCCNC(=O)C1CNC(=O)C=CC(=O)N2CCCC(C2)C(=O)NC(Cc2ccco2)C(=O)NCc2ccccc2CC(=O)N1 (centres unmarked) [JOMAt] | –
31 | > 100 µM | NCCOCCNC(=O)C1CCNC(=O)C=CC(=O)N2CCCC(C2)C(=O)NC(Cc2ccco2)C(=O)NCc2ccccc2CC(=O)N1 (centres unmarked) [JOMBc] | –
32 | > 100 µM | NCCOCCNC(=O)C1CCCNC(=O)C=CC(=O)N2CCCC(C2)C(=O)NC(Cc2ccco2)C(=O)NCc2ccccc2CC(=O)N1 (centres unmarked) [JOMCt] | –
33 | > 100 µM | NCCOCCNC(=O)C1CCNC(=O)Cc2ccccc2CNC(=O)C(Cc2ccco2)NC(=O)C2CCCN(C2)C(=O)C=CC(=O)N1 (centres unmarked) [JOMFc] | –
34 | ~90 µM | NCCOCCNC(=O)C1CCNC(=O)Cc2ccccc2CNC(=O)C(Cc2ccco2)NC(=O)C2CCCN(C2)C(=O)C=CC(=O)N1 (centres unmarked) [JOMFt] | –

same assay, conditions: IC50 CypD cis, cis olefin isomer

Row | SMILES | IC50
35 | CC(C)(C)CC1NC(=O)C(CC2CCCCC2)NC(=O)C2CCCN2C(=O)C=CC(=O)NCc2cccc(c2)CC(C(=O)NCCOCCN)NC1=O (centres unmarked) [HJJJt/c] | > 100 µM
36 | CC(C)(C)CC1NC(=O)C(Cc2ccco2)NC(=O)C2CCCN2C(=O)C=CC(=O)NCc2cccc(c2)CC(C(=O)NCCOCCN)NC1=O (centres unmarked) [HOJJt/c] | > 100 µM
37 | NCCOCCNC(=O)C1CNC(=O)C=CC(=O)NC2CCC(CC2)C(=O)NC(Cc2ccco2)C(=O)NCc2ccccc2CC(=O)N1 (centres unmarked) [JOGA] | > 100 µM
38 | NCCOCCNC(=O)C1CCNC(=O)C=CC(=O)N2CCCC(C2)C(=O)NC(Cc2ccco2)C(=O)NCc2ccccc2CC(=O)N1 (centres unmarked) [JOMB] | > 100 µM

same assay, conditions: IC50 CypD trans, trans olefin isomer

Row | SMILES | IC50
39 | CC(C)(C)CC1NC(=O)C(CC2CCCCC2)NC(=O)C2CCCN2C(=O)C=CC(=O)NCc2cccc(c2)CC(C(=O)NCCOCCN)NC1=O (centres unmarked) [HJJJt/c] | > 100 µM
40 | CC(C)(C)CC1NC(=O)C(Cc2ccco2)NC(=O)C2CCCN2C(=O)C=CC(=O)NCc2cccc(c2)CC(C(=O)NCCOCCN)NC1=O (centres unmarked) [HOJJt/c] | > 100 µM
41 | NCCOCCNC(=O)C1CNC(=O)C=CC(=O)NC2CCC(CC2)C(=O)NC(Cc2ccco2)C(=O)NCc2ccccc2CC(=O)N1 (centres unmarked) [JOGA] | > 100 µM
